Experimental data reported in PMC12752627, “Discovery of a Potent and Selective TEAD Degrader with Durable Degradation Activity” (Advanced Science, 2025).

System: 867 cancer cell lines
Experiment: PRISM assay (barcoded cell line screening, 5 days);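 further: top test concentration 10 mM in eight-point dilution series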
Type: cell-based
Design: KG-FP-003-AUC: scale not given here
Procedure: The principle of the PRISM assay has been described elsewhere and was conducted as previously outlined by the PRISM team at the Broad Institute.^[ [14], [31] ^] In PRISM (MTS027) experiments, KG‐FP‐003 was tested across 867 different cancer cell lines. Cells were treated with eight concentration gradients, ranging from 4.6 nM to […], in triplicate dilutions over a period of five days. Each plate was treated with 20 µM bortezomib as a positive control and DMSO as a negative control. Three replicate experiments were performed for each compound. The resulting data were analyzed using GraphPad PRISM 9.5.

SMILES: CNC(=O)c1cc2c(c(F)c1-c1c(Cl)c(F)cc3c1C[C@@](CN[C@H]1CC[C@H](C(=O)N4CCC(CC5CCN(C(=O)COc6ccc(N7CCC(=O)NC7=O)c(C)c6)CC5)CC4)CC1)(c1ccccc1)O3)[C@@H](O)[C@@H](C)C2 [KG-FP-003]
- KG-FP-003-AUC (42MGBA_CENTRAL_NERVOUS_SYSTEM ACH-000323 PR500): 0.75
- KG-FP-003-AUC (639V_URINARY_TRACT ACH-000973 PR500): 0.67
- KG-FP-003-AUC (647V_URINARY_TRACT ACH-000896 PR500): 0.66
- KG-FP-003-AUC (697_HAEMATOPOIETIC_AND_LYMPHOID_TISSUE ACH-000070 PR300): 0.90
- KG-FP-003-AUC (769P_KIDNEY ACH-000411 PR500): 0.78
- KG-FP-003-AUC (786O_KIDNEY ACH-000649 PR500): 0.96
- KG-FP-003-AUC (5637_URINARY_TRACT ACH-000905 PR500): 0.63
- KG-FP-003-AUC (8305C_THYROID ACH-001306 PR500): 0.73
- KG-FP-003-AUC (8505C_THYROID ACH-001307 PR500): 0.68
- KG-FP-003-AUC (CBAGPN_BONE ACH-001022 PR300): 0.91
- KG-FP-003-AUC (CCFSTTG1_CENTRAL_NERVOUS_SYSTEM ACH-000329 PR500): 1.00
- KG-FP-003-AUC (CCK81_LARGE_INTESTINE ACH-000963 PR300): 1.00
- KG-FP-003-AUC (CCLFPEDS0003T_SOFT_TISSUE ACH-001164 PR300): 1.00
- KG-FP-003-AUC (CCLP1_BILIARY_TRACT ACH-001959 PR300): 0.63
- KG-FP-003-AUC (CCSW1_BILIARY_TRACT ACH-001960 PR300): 0.99
- KG-FP-003-AUC (CFPAC1_PANCREAS ACH-000138 PR500): 0.95
- KG-FP-003-AUC (CH157MN_CENTRAL_NERVOUS_SYSTEM ACH-000025 PR300): 0.77
- KG-FP-003-AUC (CHAGOK1_LUNG ACH-000867 PR300): 0.78
- KG-FP-003-AUC (CHL1_SKIN ACH-001024 PR500): 1.00
- KG-FP-003-AUC (CHLA06ATRT_SOFT_TISSUE ACH-001028 PR300): 0.99
- KG-FP-003-AUC (CHLA10_BONE ACH-001029 PR300): 0.99
- KG-FP-003-AUC (CHLA15_AUTONOMIC_GANGLIA ACH-001300 PR300): 0.98
- KG-FP-003-AUC (CHLA57_BONE ACH-001033 PR300): 0.75
- KG-FP-003-AUC (CHLA200_CENTRAL_NERVOUS_SYSTEM ACH-001293 PR300): 0.99
- KG-FP-003-AUC (CJM_SKIN ACH-000458 PR500): 0.54
- KG-FP-003-AUC (CL11_LARGE_INTESTINE ACH-000249 PR300): 1.00
- KG-FP-003-AUC (CL34_LARGE_INTESTINE ACH-000895 PR500): 0.99
- KG-FP-003-AUC (CMLT1_HAEMATOPOIETIC_AND_LYMPHOID_TISSUE ACH-000920 PR300): 0.82
- KG-FP-003-AUC (COGAR359_SOFT_TISSUE ACH-001289 PR300): 0.62
- KG-FP-003-AUC (COGE352_BONE ACH-001038 PR300): 0.85
- KG-FP-003-AUC (COGN278_AUTONOMIC_GANGLIA ACH-001301 PR300): 1.00
- KG-FP-003-AUC (COLO320_LARGE_INTESTINE ACH-000202 PR300): 0.97
- KG-FP-003-AUC (COLO668_LUNG ACH-000803 PR500): 1.00
- KG-FP-003-AUC (COLO679_SKIN ACH-000805 PR500): 0.97
- KG-FP-003-AUC (COLO680N_OESOPHAGUS ACH-000717 PR500): 0.91
- KG-FP-003-AUC (COLO741_SKIN ACH-000582 PR500): 1.00
- KG-FP-003-AUC (COLO783_SKIN ACH-000812 PR500): 0.85
- KG-FP-003-AUC (COLO792_SKIN ACH-000968 PR500): 0.98
- KG-FP-003-AUC (COLO800_SKIN ACH-000401 PR500): 0.99
- KG-FP-003-AUC (CORL23_LUNG ACH-000662 PR500): 0.99
- KG-FP-003-AUC (CORL88_LUNG ACH-000508 PR300): 0.94
- KG-FP-003-AUC (CORL105_LUNG ACH-000161 PR500): 0.95
- KG-FP-003-AUC (CORL279_LUNG ACH-000257 PR300): 0.80
- KG-FP-003-AUC (COV318_OVARY ACH-000256 PR300): 0.82
- KG-FP-003-AUC (COV362_OVARY ACH-000278 PR500): 0.94
- KG-FP-003-AUC (COV434_OVARY ACH-000123 PR500): 0.90
- KG-FP-003-AUC (COV644_OVARY ACH-000608 PR300): 0.68
- KG-FP-003-AUC (CW2_LARGE_INTESTINE ACH-000998 PR300): 1.00
- KG-FP-003-AUC (CW9019_SOFT_TISSUE ACH-001050 PR300): 0.68
- PRISM AUC (Cell line: A172, 5 days): 0.43
- PRISM AUC (Cell line: ES2, 5 days): 0.62
- PRISM AUC (Cell line: HOS, 5 days): 0.53
- PRISM AUC (Cell line: KLE, 5 days): 0.53
